Measured values from US7932042B1, “Methods and compositions for the treatment of psychotic disorders through the identification of the olanzapine poor response predictor genetic signature” (Suregene, LLC, priority 2010, dated 2011).
Marks after values point to notes of the source that are not given here.

Key:
[1] = tested on: patients suffering from schizophrenia; experiment: Diagnostic performance of the OPRP test in the CATIE study for worsening symptoms (Delta PANSS ≧ 0); assay type: in vivo, human
Description: Several different measures of diagnostic performance can be used for comparing dichotomous outcomes. Two important metrics include percent positive agreement (PPA), a substitute for sensitivity, and percent negative agreement (PNA), a substitute for specificity.

[2] = tested on: patients suffering from schizophrenia; experiment: CATIE study: change in total PANSS (LOCF) by drug arm, segmented by OPRP genetic signature status; assay type: in vivo, human; parameters: key to Mean difference olanzapine vs. named drug, CATIE unsegemented / Mean difference olanzapine vs. named drug, CATIE OPRP+: difference in change in total PANSS score (LOCF); decrease = better response; details: for Mean difference olanzapine vs. named drug, CATIE OPRP+: positive = olanzapine inferior; for DELTA PANSS % (mean change in PANSS score from baseline to LOCF): more negative = greater improvement
Method: The CATIE study, a large federally funded clinical trial designed to assess the efficacy of antipsychotics in a real world setting, is a valuable resource for determining the role of genes in baseline psychopathology and drug response (Lieberman et al., 2005; Stroup et al., 2003). […] Additionally, whole genome SNP genotyping was performed for roughly half of the trial participants (Sullivan et al., 2008). Genotype and phenotype data for the CATIE trial were recently made available to qualified researchers through the NIMH Center for Collaborative Genetic Studies on Mental Disorders. The sample consisted of a total of 738 patients. For the present study, the inventors assigned OPRP status to 628 subjects, including 411 subjects of self-reported European ancestry and 217 subjects of self-reported African ancestry. Further details on the patient population are described in the study by Sullivan and coworkers (Sullivan et al., 2008). […] The design of the CATIE study has been described in detail by others (Lieberman et al., 2005; Stroup et al., 2003). […] Instead of entering into Phase II of the trial, subjects who switched from perphenazine entered Phase IB. […] Subjects who failed Phase IB then entered Phase II. A total of 738 subjects consented to provide DNA for genetic study. […] Only retrospective genetic analyses, judged to be exempt from human studies requirements by an IRB, were conducted in the current study. For the genetic analyses presented herein, the inventors combined and evaluated drug response data for both Phase I and Phase IB of the CATIE study. All tested patients were studied using well established clinical endpoints comparing baseline, intermediate, and last observation carried forward (LOCF) for the PANSS scores using CATIE data. LOCF analysis is a commonly used clinical endpoint for clinical trials for neuropsychiatric drugs, with particular changes in PANSS scores being used to indicate clinically significant response (Leucht et al., 2009). Using the clinical data from the CAIE trial, the inventors derived several different metrics used for quantifying response in clinical trials of antipsychotic medications. […] The greater the decrease in PANSS score, the better the clinical response. The most direct measure of clinical response is absolute change in PANSS score. In addition to absolute change, the improvement is often reported as a percentage change from baseline PANSS score. […] To examine the relationship of genotypes to drug response the inventors used the publicly available PLINK software (Purcell et al., 2007; available on the world wide web at pngu.mgh.harvard.edu/purcell/[…] Helix tree (Version 6.4.1; Golden Helix, Bozeman, Mont.). The inventors used Last observation Carry Forward (LOCF) delta PANSS values as a measure of response to antipsychotic treatment. […] The inventors refined the test further by conducting association analysis on using only those subjects that comprised the TT genotype of […]. […] Presence of the TT or TC genotypes of […] in individuals that comprised the TT genotype at […] indicates OPRP positive status. […] As mentioned previously, the mean change in absolute or percent PANSS provides an important measure of efficacy in patients undergoing antipsychotic treatments. Indeed, many pivotal trials in the psychosis field used absolute and/or percentage change in PANSS Score as the primary endpoint (Leucht et al., 2009). […] Therefore, in addition to examining a categorical definition of clinically significant response, the inventors determined the impact of segmentation by OPRP genetic signature status on the quantitative measure of clinical improvement-delta PANSS for LOCF.

[3] = tested on: patients suffering from schizophrenia; details: vs first generation antipsychotics; Davis et al. (2003); cited from earlier work
[4] = tested on: patients suffering from schizophrenia; details: population not segmented by OPRP status; negative = greater reduction in PANSS; cited from earlier work
[5] = tested on: patients suffering from schizophrenia; details: weighted mean difference in PANSS score (absolute); negative = olanzapine superior; cited from earlier work
[6] = olanzapine-treated OPRP+ group minus named comparator drug OPRP+ group, positive = poorer response to olanzapine
[7] = delta PANSS, negative = olanzapine superior
[8] = olanzapine OPRP positive versus drug OPRP positive

Structure (SMILES)	Non-Worsen (number of subjects) ([1]; OPRP Positive)	Worsen (number of subjects, Delta PANSS ≧ 0) ([1]; OPRP Positive)	Number of individuals with change in total PANSS (LOCF) ≦−10% (responders) ([2]; OPRP Negative)	Number of individuals with change in total PANSS (LOCF) ≧−10% ([2]; OPRP Negative)	Number of individuals with delta PANSS (LOCF) ≦0% ([2]; OPRP Negative)	Number of individuals with delta PANSS (LOCF) ≧0% (worsening symptoms) ([2]; OPRP Negative)	Responders (change in PANSS of ≦−10%) ([2]; OPRP Negative)	Worsening (delta PANSS ≧0%) ([2]; OPRP Negative)	Number of individuals with change in total PANSS (LOCF) ≦−10% (responders) ([2]; OPRP Positive)	Number of individuals with change in total PANSS (LOCF) ≧−10% ([2]; OPRP Positive)	Number of individuals with delta PANSS (LOCF) ≦0% ([2]; OPRP Positive)	Number of individuals with delta PANSS (LOCF) ≧0% (worsening symptoms) ([2]; OPRP Positive)	Responders (change in PANSS of ≦−10%) ([2]; OPRP Positive)	Worsening (delta PANSS ≧0%) ([2]; OPRP Positive)	Mean difference (95% CI) in delta PANSS [2, 6]	Effect Size vs. FGA [3]	Effect Size vs. Placebo [4]	Mean difference olanzapine vs. named drug, CATIE unsegemented [2, 7]	Mean difference olanzapine vs. named drug, CATIE OPRP+ ([2]; delta PANSS)	Mean difference olanzapine vs. named drug, Meta-analysis [5]	further results
OCCN1CCN(CCCN2c3ccccc3Sc3ccc(Cl)cc32)CC1 [Perphenazine]	9	3	39	71	65	45	35%^+	41%^+++	5	7	9	3	42%^^	25%^	12 (2.0 to 22.0)	–	–	–	–	–	–
OCCOCCN1CCN(C2=Nc3ccccc3Sc3ccccc32)CC1 [Quetiapine]	9	9	48	99	95	62	33%^+++	42%^+++	4	14	9	9	22%	50%	5.5 (−4.1 to 15.0)	0.01	−0.42	−6.2	5.5	−3.7	Mean difference olanzapine vs. named drug, CATIE OPRP− [2, 7]: −8.4; CATIE Effect Size [2, 8]: 0.3^b
Cc1cc2c(s1)Nc1ccccc1N=C2N1CCN(C)CC1 [Olanzapine]	8	18	73	66	113	26	53%^*	19%^*	1	25	8	18	4%	69%	–	–	–	–	–	–	Non-Worsen (number of subjects) ([1]; OPRP Negative): 113; Worsen (number of subjects, Delta PANSS ≧ 0) ([1]; OPRP Negative): 26; DELTA PANSS % (mean change in PANSS score from baseline to LOCF) ([2]; OPRP Negative subjects): −11.6%; DELTA PANSS % (mean change in PANSS score from baseline to LOCF) ([2]; OPRP Positive subjects): 4.3%; DELTA PANSS % (mean change in PANSS score from baseline to LOCF) ([2]; OPRP Positive subjects, listed as olanzapine): +4.3%; CATIE Effect Size ([2]; olanzapine OPRP positive versus olanzapine OPRP negative): 1.0^a; CATIE Effect Size ([2]; olanzapine OPRP positive versus olanzapine OPRP negative, listed as olanzapine): 1.0; Mean difference (95% CI) in delta PANSS ([2]; olanzapine OPRP+ minus olanzapine OPRP−): 15.9 (9.7 to 22.1); Effect size (mean difference / standard deviation) ([2]; olanzapine OPRP+ vs olanzapine OPRP−): 1.0
O=C1Cc2cc(CCN3CCN(c4nsc5ccccc45)CC3)c(Cl)cc2N1 [Ziprasidone]	7	4	16	53	35	34	23%^++++	49%^++++	2	9	7	4	18%	36%	4.8 (−2.7 to 12.3)	−0.04	−0.48	−4.9	4.8	−8.3	CATIE Effect Size [2, 8]: 0.2^b
Cc1nc2n(c(=O)c1CCN1CCC(c3noc4cc(F)ccc34)CC1)CCCC2 [Risperidone]	13	7	–	–	–	–	–	–	–	–	–	–	–	–	–	−0.25	−0.59	–	–	−1.9	–
